# Non-standard residues stand in square brackets, D forms with d. Residues, ends and D or L forms follow the SMILES beside them. *: point of attachment. Bn = c1ccc(C*)cc1
# Experiments:
# [1] = target: T1, endothelin receptor A (ETA) (Sus scrofa, UniProt Q29010); assay: Assay of affinity for receptor (1): binding activity on ETA receptor, 125I-labeled endothelin-1, porcine heart membrane fraction; set-up: key: relative specific activity; reference cyclic pentapeptide ETA binding = 1.0; details: specific activity, taking the binding activity of control cyclo[-D-Glu-Ala-D-aIle-Leu-D-Trp-] on receptor A as 1.0, 25°C, 1 hour
# T1 construct: A membrane fraction prepared from the porcine heart; from tissue; host or cells: porcine heart membrane fraction
# T1 sequence (Q29010 21-427): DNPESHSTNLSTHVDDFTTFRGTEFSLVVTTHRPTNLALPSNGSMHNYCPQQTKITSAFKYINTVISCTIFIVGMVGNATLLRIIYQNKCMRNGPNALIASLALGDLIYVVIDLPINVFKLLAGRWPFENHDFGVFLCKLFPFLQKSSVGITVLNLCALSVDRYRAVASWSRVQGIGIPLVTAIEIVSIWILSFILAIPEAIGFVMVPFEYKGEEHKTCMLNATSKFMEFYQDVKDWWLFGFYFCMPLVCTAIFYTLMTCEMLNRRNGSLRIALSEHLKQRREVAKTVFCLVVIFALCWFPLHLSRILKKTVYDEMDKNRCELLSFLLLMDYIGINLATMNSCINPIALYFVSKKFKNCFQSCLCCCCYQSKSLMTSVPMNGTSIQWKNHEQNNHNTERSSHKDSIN
# Protocol: Assay of Affinity for Receptor (1) ... Binding Activity on ETA Receptor
# A membrane fraction prepared from the porcine heart was diluted to 0.15 mg/ml by using a buffer solution for assay, and 100 µl of the resulting suspension of the membrane fraction was poured into each assay tube to use for assay. To this suspension of the membrane fraction was added 2 µl of 5 nM ^125I-labeled endothelin-1 solution. Further, 3 µl of a test peptide solution was added thereto, followed by incubation at a temperature of 25°C for 1 hour. Then, the resulting suspension was diluted with 900 µl of the buffer solution for assay cooled with ice, and thereafter separated into a supernatant and a precipitate by centrifugation at 12,000 X g for 10 minutes. Cell membranes and an endothelin receptor A (ETA) embedded therein were contained in the precipitate, and radioactive iodine-labeled endothelin combined with the receptor was also recovered in the precipitate. Accordingly, the amount of radioactive iodine-labeled endothelin combined with the endothelin receptor A (ETA) was determined by measuring the amount of radioactive iodine contained in the precipitate with a gamma-ray counter. The cyclic pentapeptide described in Japanese Patent Application No. 2-413328/1990, cyclo[-D-Glu-Ala-D-aIle-Leu-D-Trp-], was used as a control compound. The numerical value of ETA shown in Table 1 is the value of specific activity, taking the binding activity of this cyclic pentapeptide on the receptor A as 1.0. The binding activity (IC50) of this cyclic pentapeptide on the ETA receptor is 2x10^-6 M.
# ETB = ETB radio receptor assay *2, 125I-endothelin-1, guinea pig kidney crude membrane fraction; type: binding, Guinea pigs; details: relative activity, 37 °C, 90 minutes
# Protocol: ETB Radio Receptor Assay *2
# In the endothelin radio receptor assay, guinea pigs' kidneys were used. Guinea pigs (Std Hartrey, male 250 g, Japan SLC Ltd.) were made to have a cerebral concussion and sacrificed by bleeding from carotid arteries to pick up the kidneys and removed fat therefrom to prepare the kidneys. The obtained kidneys were sliced and homogenized by politron homogenizer in 20 ml of 50 mM Tris-HCl buffer [pH 7.4; 20 mM NaHCO3, 0.1 mM PMSF (Phenylmethylsulfonyl Fluoride), 1 mM EDTA (Ethylenediaminetetraacetic acid)] per one kidney. The homogenized kidney was applied to a centrifugation at 1,000 x g for 15 minutes and the supernatant was further applied to a centrifugation for 20 minutes at 30,000 x g. The resulting precipitate was twice washed with 50 mM Tris-HCl buffer (pH 7.4) containing 0.1 mM PMSF, 1 mM EDTA. The resultant was stored at -80 °C as a crude receptor membrane fraction and was used as the suspension in the following buffer when necessary.
# 740 Bq of ^125I-endothelin-1 (81.4 TBq/mmol, Du Pont, USA) as a radio ligand, the crude membrane fraction (2.1 µg protein) and samples were added to the following buffer. The reaction was performed at 37 °C, for 90 minutes in 0.2 ml of the buffer [50 mM Tris-HCl buffer (pH 7.4) containing 0.1 mM PMSF, 1 mM EDTA, 0.2% bovine serum albumin].
# The reaction was stopped by fast filtration on a glass filter (GF/B, Wattman, USA) by Cell Harvestor (290 PHD, Cambridge-Technology, Great Britain), and the filter was three times washed with 50 mM Tris-HCl buffer (pH 7.4). Radio activity remained on the filter was assayed by a gamma counter.
SMILES,Binding Activity on ET Receptor (R. act.) ETA [1],Binding Activity on ET Receptor (R. act.) ETB*2 (ETB)
"CC(C)C[C@@H]1NC(=O)[C@@H](CC(C)C)NC(=O)[C@@H](CC(=O)O)NC(=O)[C@H](C)NC(=O)[C@@H](CC(=O)O)NC(=O)[C@@H](Cc2c[nH]c3ccccc23)NC1=O [Example 2, cyclo[-D-Asp-Ala-D-Asp-D-Leu-Leu-D-Trp-]] (cyclo(A[dD][dL]L[dW][dD]))",3.7,3.1
"CC(C)C[C@@H]1NC(=O)[C@@H](CC(C)C)NC(=O)[C@H](CCC(=O)O)NC(=O)[C@H](C)NC(=O)[C@@H](CC(=O)O)NC(=O)[C@@H](Cc2c[nH]c3ccccc23)NC1=O [Example 3, cyclo[-D-Asp-Ala-Glu-D-Leu-Leu-D-Trp-]] (cyclo(AE[dL]L[dW][dD]))",7.9,23
"CC(C)C[C@@H]1NC(=O)[C@@H](CC(C)C)NC(=O)[C@@H](CCC(=O)O)NC(=O)[C@H](C)NC(=O)[C@@H](CC(=O)O)NC(=O)[C@@H](Cc2c[nH]c3ccccc23)NC1=O [Example 4, cyclo[-D-Asp-Ala-D-Glu-D-Leu-Leu-D-Trp-]] (cyclo(A[dE][dL]L[dW][dD]))",2.3,1.4
"CC(C)C[C@@H]1NC(=O)[C@@H](CC(C)C)NC(=O)[C@H](C)NC(=O)CNC(=O)[C@@H](CC(=O)O)NC(=O)[C@@H](Cc2c[nH]c3ccccc23)NC1=O [Example 5, cyclo[-D-Asp-Gly-Ala-D-Leu-Leu-D-Trp-]] (cyclo(A[dL]L[dW][dD]G))",1.3,
"CC(C)C[C@@H]1NC(=O)[C@@H](CC(C)C)NC(=O)[C@H](C)NC(=O)[C@H](CC(=O)O)NC(=O)[C@@H](CC(=O)O)NC(=O)[C@@H](Cc2c[nH]c3ccccc23)NC1=O [Example 6, cyclo[-D-Asp-Asp-Ala-D-Leu-Leu-D-Trp-]] (cyclo(A[dL]L[dW][dD]D))",6.0,7.1
"CC(C)C[C@@H]1NC(=O)[C@@H](CC(C)C)NC(=O)[C@H](C)NC(=O)[C@H](CCC(=O)O)NC(=O)[C@@H](CC(=O)O)NC(=O)[C@@H](Cc2c[nH]c3ccccc23)NC1=O [Example 7, cyclo[-D-Asp-Glu-Ala-D-Leu-Leu-D-Trp-]] (cyclo(A[dL]L[dW][dD]E))",6.5,7.1
"CC(C)C[C@@H]1NC(=O)[C@@H](CC(C)C)NC(=O)[C@H](CC(=O)O)NC(=O)[C@@H](C)NC(=O)[C@@H](CC(=O)O)NC(=O)[C@@H](Cc2c[nH]c3ccccc23)NC1=O [Example 15, Cyclo[-D-Asp-D-Ala-Asp-D-Leu-Leu-D-Trp-]] (cyclo(D[dL]L[dW][dD][dA]))",5.7,7.7
"CC(C)C[C@@H]1NC(=O)[C@@H](CC(C)C)NC(=O)[C@H](CC(=O)O)NC(=O)[C@H](C(C)C)NC(=O)[C@@H](CC(=O)O)NC(=O)[C@@H](Cc2c[nH]c3ccccc23)NC1=O [Example 17, Cyclo[-D-Asp-Val-Asp-D-Leu-Leu-D-Trp-]] (cyclo(D[dL]L[dW][dD]V))",3.7,22
"CC(C)C[C@@H]1NC(=O)[C@@H](CC(C)C)NC(=O)[C@H](CC(=O)O)NC(=O)[C@H](CC(C)C)NC(=O)[C@@H](CC(=O)O)NC(=O)[C@@H](Cc2c[nH]c3ccccc23)NC1=O [Example 18, Cyclo[-D-Asp-Leu-Asp-D-Leu-Leu-D-Trp-]] (cyclo(D[dL]L[dW][dD]L))",13,2.2
"CC(C)C[C@@H]1NC(=O)[C@@H](CC(C)C)NC(=O)[C@H](CC(=O)O)NC(=O)[C@H](Cc2ccccc2)NC(=O)[C@@H](CC(=O)O)NC(=O)[C@@H](Cc2c[nH]c3ccccc23)NC1=O [Example 19, Cyclo[-D-Asp-Phe-Asp-D-Leu-Leu-D-Trp-]] (cyclo(D[dL]L[dW][dD]F))",8.3,7.1
"CC(C)C[C@@H]1NC(=O)[C@@H](CC(C)C)NC(=O)[C@H](CC(=O)O)NC(=O)[C@H](COCc2ccccc2)NC(=O)[C@@H](CC(=O)O)NC(=O)[C@@H](Cc2c[nH]c3ccccc23)NC1=O [Example 20, Cyclo[-D-Asp-Ser(Bzl)-Asp-D-Leu-Leu-D-Trp-]] (cyclo(D[dL]L[dW][dD]S(Bn)))",14,13
"CC(C)C[C@@H]1NC(=O)[C@@H](CC(C)C)NC(=O)[C@H](CC(=O)O)NC(=O)[C@H]2CCCN2C(=O)[C@@H](CC(=O)O)NC(=O)[C@@H](Cc2c[nH]c3ccccc23)NC1=O [Example 24, Cyclo[-D-Asp-D-Pro-Asp-D-Leu-Leu-D-Trp-]] (cyclo(D[dL]L[dW][dD][dP]))",1.7,
"CC(C)C[C@@H]1NC(=O)[C@@H](CC(C)C)NC(=O)[C@H](C)NC(=O)[C@@H](CC(=O)O)NC(=O)[C@@H](CC(=O)O)NC(=O)[C@@H](Cc2c[nH]c3ccccc23)NC1=O [Example 27, Cyclo[-D-Asp-D-Asp-Ala-D-Leu-Leu-D-Trp-]] (cyclo(A[dL]L[dW][dD][dD]))",5.7,4.8
"CC(C)C[C@@H]1NC(=O)[C@@H](CC(C)C)NC(=O)[C@H](C)NC(=O)[C@@H](CCC(=O)O)NC(=O)[C@@H](CC(=O)O)NC(=O)[C@@H](Cc2c[nH]c3ccccc23)NC1=O [Example 28, Cyclo[-D-Asp-D-Glu-Ala-D-Leu-Leu-D-Trp-]] (cyclo(A[dL]L[dW][dD][dE]))",5.7,5.3
"CC(C)C[C@@H]1NC(=O)[C@@H](CC(C)C)NC(=O)[C@@H](C)NC(=O)[C@H](CC(=O)O)NC(=O)[C@@H](CC(=O)O)NC(=O)[C@@H](Cc2c[nH]c3ccccc23)NC1=O [Example 29, Cyclo[-D-Asp-Asp-D-Ala-D-Leu-Leu-D-Trp-]] (cyclo(D[dA][dL]L[dW][dD]))",2.6,2.4
"CC(C)C[C@@H]1NC(=O)[C@@H](CC(C)C)NC(=O)[C@@H]2CCCN2C(=O)[C@H](CC(=O)O)NC(=O)[C@@H](CC(=O)O)NC(=O)[C@@H](Cc2c[nH]c3ccccc23)NC1=O [Example 30, Cyclo[-D-Asp-Asp-Pro-D-Leu-Leu-D-Trp-]] (cyclo(DP[dL]L[dW][dD]))",4.4,9.1
"CC(C)C[C@@H]1NC(=O)[C@@H](CC(C)C)NC(=O)CNC(=O)[C@H](C)NC(=O)[C@@H](CCC(=O)O)NC(=O)[C@@H](Cc2c[nH]c3ccccc23)NC1=O [Example 40, Cyclo[-D-Glu-Ala-Gly-D-Leu-Leu-D-Trp-]] (cyclo(AG[dL]L[dW][dE]))",1.4,
"CC(C)C[C@H]1NC(=O)[C@H](CC(=O)O)NC(=O)[C@H](C)NC(=O)[C@@H](CC(=O)O)NC(=O)[C@@H](Cc2c[nH]c3ccccc23)NC(=O)[C@H](Cc2ccccc2)NC1=O [Example 57, Cyclo[-D-Asp-Ala-Asp-D-Leu-Phe-D-Trp-]] (cyclo(AD[dL]F[dW][dD]))",,2.0

# — EP0552417B1, “Cyclic peptides and use thereof” (priority 1991, dated 1993)
